Like-named read-outs stand apart in the source and are kept apart here.
Tests used:
SRC kinase = molecular target: T1, SRC kinase (Gallus gallus, UniProt P00523, Y527F); assay: Src kinase activity assay (immunoprecipitate from src-transformed NIH 3T3 cells); assay type: biochemical, chicken
T1 construct: expressed in transfected cells; host or cells: NIH 3T3, stably transfected (gift of S. Courtneidge, Heidelberg)
Procedure: Src kinase activity assay: src-transformed NIH 3T3 cells were grown in 24-well plates to confluency; rinsed twice with a solution containing 20 mM Tris, 0.1 mM sodium-o-vanadate, and 150 mM NaCl (pH 7.5); and lysed in 100 μl/well of lysis buffer containing 20 mM Tris (pH 8.0), 150 mM NaCl, 1% Nonidet P-40, 2.5 mM EDTA, 10 mM NaF, 1% trasylol, and 20 μm leupeptin. The lysate was clarified by centrifugation and subjected to immunoprecipitation with the anti-Src monoclonal antibody MAb 327 (Oncogene Science; 0.5 μg antibody/80 μg protein) for 1 hour at 4° C. Then, goat anti-mouse IgG (Sigma; 0.2 μg per 0.5 μg monoclonal antibody 327) was added and incubation was continued for 30 mi followed by another 40 min of incubation with 10 μl of protein A-Sepharose Cl-4B (Pharmacia). The immunoprecipitates were washed five times with the lysis buffer and twice with kinase buffer containing 40 mM Hepes (pH 7.4), 0.5 mM dithiothreitol, 5 mM MnCl2, and 0.1 mM sodium-o-vanadate. The immunoprecipitates were suspended in kinase buffer and aliquots corresponding to 40 μg of cell lysate protein were preincubated with or without tyrphostin for 15 min at 30° C. Then, the kinase reaction was performed in the presence of 2 μg of acid-treated enolase and 10 μCi of [γ-^32 P]ATP (2 μM) in a final volume of 30 μl. The reaction was terminated by addition of SDS-PAGE sample buffer (6% SDS, 30% β-mercaptoetlhanol, 40% glycerol, and 0.5 mg/ml bromophenol blue) and the incorporation of radioactivity in the enolase was analyzed by SDS-PAGE and autoradiography as well as Phosphor-Imager quantification.

PDGF β-receptor = molecular target: T2, PDGF β-receptor (Sus scrofa, UniProt F1RL75); assay: PDGF induced PDGFR autophosphorylation in intact SMC cells; assay type: cell-based; settings: porcine arterial SMC
T2 construct: PDGF-BB stimulated; immunoprecipitated with PDGF beta-receptor specific antiserum R3
T2 sequence (F1RL75 109-1181): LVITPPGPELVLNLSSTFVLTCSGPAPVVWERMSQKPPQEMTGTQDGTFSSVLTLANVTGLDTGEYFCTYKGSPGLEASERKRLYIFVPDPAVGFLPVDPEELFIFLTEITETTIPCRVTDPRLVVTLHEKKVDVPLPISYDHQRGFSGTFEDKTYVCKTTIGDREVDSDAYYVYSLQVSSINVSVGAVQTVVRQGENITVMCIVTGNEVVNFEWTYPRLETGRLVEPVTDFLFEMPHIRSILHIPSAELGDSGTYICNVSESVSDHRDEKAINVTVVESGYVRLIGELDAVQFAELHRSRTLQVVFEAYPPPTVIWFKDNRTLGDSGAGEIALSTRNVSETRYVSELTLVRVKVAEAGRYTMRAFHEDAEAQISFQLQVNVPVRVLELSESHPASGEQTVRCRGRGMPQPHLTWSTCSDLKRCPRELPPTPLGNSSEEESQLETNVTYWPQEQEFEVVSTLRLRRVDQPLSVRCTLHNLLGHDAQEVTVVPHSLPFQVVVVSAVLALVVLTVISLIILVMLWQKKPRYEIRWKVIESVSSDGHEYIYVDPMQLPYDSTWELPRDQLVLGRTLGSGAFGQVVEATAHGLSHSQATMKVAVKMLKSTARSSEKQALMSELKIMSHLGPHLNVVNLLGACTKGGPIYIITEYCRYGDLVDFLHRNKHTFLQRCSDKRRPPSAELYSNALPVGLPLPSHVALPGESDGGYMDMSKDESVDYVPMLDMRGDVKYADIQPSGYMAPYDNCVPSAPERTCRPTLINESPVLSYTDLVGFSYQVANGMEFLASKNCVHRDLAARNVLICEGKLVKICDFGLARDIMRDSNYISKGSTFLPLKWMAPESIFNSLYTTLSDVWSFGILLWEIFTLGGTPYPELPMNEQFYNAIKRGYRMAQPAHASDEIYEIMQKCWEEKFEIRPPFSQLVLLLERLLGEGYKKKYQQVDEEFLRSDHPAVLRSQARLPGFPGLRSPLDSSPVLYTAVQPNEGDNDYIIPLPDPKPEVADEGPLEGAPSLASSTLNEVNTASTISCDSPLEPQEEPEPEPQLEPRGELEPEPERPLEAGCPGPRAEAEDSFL
Procedure: Effect of tyrphostins on PDGF induced PDGFR autophosphorylation in intact SMC cells: Subconfluent porcine arterial smooth muscle cells, cultivated in Dulbecco's modified Eagle's medium (DMEM) supplemented with 15% fetal calf serum (FCS), were synchronized for 20 hours in a medium containing 2% FCS. […] After stimulation, the cells were solubilized in Nonidet P-40 (1%) containing lysis buffer.
The analysis of PDGF p-receptor phosphorylation was performed as follows. Cell lysates were subjected to immunoprecipitation using the PDGF β-receptor specific antiserum R3 [5]. The percipitates were subjected to polyacrylamide (7.5%) gel electrophoresis in presence of sodium deducyl sulfate (SDS-PAGE) and were thereafter blotted onto a nitrocellulose membrane (Hybond C-EXTRA, Amersham). Phosphorylated proteins were detected by immunoblotting using the horseradish-peroxidase conjugated phosphotyrosine antibody RC20H (Transduction Laboratories), followed by chemoluminescence-based detection (ECL, Amersham) and autoradiography.
Detection of receptor proteins was performed as follows. Cell lysates were subjected to immunoprecipitation using the PDGF β-receptor specific antiserum R3 [5], as described above, and the percipitates washed three times and thereafter subjected to SDS-PAGE (7.5%) and blotting onto a nitrocellulose membrane (Hybond C-EXTRA, Amersham). Receptor proteins were detected by immunoblotting using the horseradish-peroxidase conjugated donkey anti-rabbit antibody (Amersham), followed by chemoluminescence-based detection (ECL, Amersham) and autoradiography.

EGFR = molecular target: T3, EGFR (Mus musculus, UniProt Q01279); assay: EGFR autophosphorylation, isolated membranes or intact Swiss 3T3 cells; assay type: biochemical; settings: read-out: IC50 (50% inhibition of phosphorylation) EGFR
T3 construct: Membranes were prepared from confluent cultures of Swiss 3T3 cells; endogenous in cells; host or cells: Swiss 3T3 (obtained from E. Rozengurt, London)
T3 sequence (Q01279 25-1210): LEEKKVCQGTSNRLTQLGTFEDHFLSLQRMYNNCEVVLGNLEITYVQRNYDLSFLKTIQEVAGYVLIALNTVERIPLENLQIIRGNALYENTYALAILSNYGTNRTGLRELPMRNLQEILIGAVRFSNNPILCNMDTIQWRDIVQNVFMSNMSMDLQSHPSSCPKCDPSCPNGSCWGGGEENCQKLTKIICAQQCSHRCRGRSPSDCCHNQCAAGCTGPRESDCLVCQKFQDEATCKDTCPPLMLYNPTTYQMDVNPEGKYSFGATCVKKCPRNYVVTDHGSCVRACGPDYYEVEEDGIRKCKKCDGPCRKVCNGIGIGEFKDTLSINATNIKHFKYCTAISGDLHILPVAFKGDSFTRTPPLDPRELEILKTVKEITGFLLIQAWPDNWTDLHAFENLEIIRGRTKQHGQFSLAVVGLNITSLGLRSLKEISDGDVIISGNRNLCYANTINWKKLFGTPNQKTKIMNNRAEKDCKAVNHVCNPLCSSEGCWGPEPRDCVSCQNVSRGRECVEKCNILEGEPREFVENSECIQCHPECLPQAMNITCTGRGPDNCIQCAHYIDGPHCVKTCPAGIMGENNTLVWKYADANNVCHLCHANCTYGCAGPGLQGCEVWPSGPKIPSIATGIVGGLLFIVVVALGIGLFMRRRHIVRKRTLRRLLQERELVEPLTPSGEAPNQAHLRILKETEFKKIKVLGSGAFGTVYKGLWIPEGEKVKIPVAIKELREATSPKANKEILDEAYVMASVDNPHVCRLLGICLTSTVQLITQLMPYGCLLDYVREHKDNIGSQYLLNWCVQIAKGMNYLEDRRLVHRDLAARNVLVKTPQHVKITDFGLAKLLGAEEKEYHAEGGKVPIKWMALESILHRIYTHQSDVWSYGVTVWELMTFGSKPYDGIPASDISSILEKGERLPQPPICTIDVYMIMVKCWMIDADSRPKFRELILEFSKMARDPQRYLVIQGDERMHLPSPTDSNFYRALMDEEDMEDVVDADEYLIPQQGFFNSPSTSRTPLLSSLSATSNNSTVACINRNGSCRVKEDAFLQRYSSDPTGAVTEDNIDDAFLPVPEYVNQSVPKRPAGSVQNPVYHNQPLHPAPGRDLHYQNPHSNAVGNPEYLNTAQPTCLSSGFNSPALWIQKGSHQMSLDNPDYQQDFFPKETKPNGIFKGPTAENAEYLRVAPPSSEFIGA
Procedure: Membrane autophosphorylation assays: Membranes were prepared from confluent cultures of Swiss 3T3 cells as described [22]. For measuring receptor autophosphorylation, 10 μg membrane protein per assay were incubated for 20 min on ice in the presence of 1.2 μg/ml EGF or 2 μg/ml PDGF, or both; 50 mM Hepes (pH 7.5); and 3 mm MnCl2 (final concentrations) in a volume of 45 μl. In order to test the effects and determine the IC50 value of various tyrphostins, these were added in a volume of 0.5 μl (in DMSO; final concentration, 0.5%) 15 min before addition of the growth factors, in a range of concentrations. […] For quantification of radioactivity in electrophoresis gels, a Phospho-Imager (Molecular Dynamics, Fuji, or Bio-Rad) was used according to the instructions of the manufacturers. […]

PDGFR = PDGFR autophosphorylation, isolated membranes or intact Swiss 3T3 cells; assay type: biochemical; settings: read-out: IC50 (50% inhibition of phosphorylation) PDGFR
Procedure: Assay of receptor autophosphorylation in intact 3T3 cells: Confluent Swiss 3T3 cells in 24-well plates (Nunc) were incubated for 20-24 hours in serum-free DMEM. Subsequently, tyrphostins were added at concentrations ranging from 0 to 100 μM (final DMSO concentration, 0.5%) and the incubation was continued for 6-8 hours. The cells were then stimulated with 100 ng/ml PDGF-BB for 5 min at room temperature or 600 ng/ml EGF for 2.5 min on ice. The growth factor treatment was terminated by washing twice with ice-cold PBS and the cells were scraped off the wells in 60 μl lysis buffer containing 20 mM Hepes (pH 7.4), 150 mM NaCl, 1% Triton X-100, 10 mM sodium pyrophosphate, 50 mM NaF, 2 mM sodium-o-vanadate, 20 μm zinc acetate, 10 nM EDTA, 2 mM [ethylenebis(oxyethilenenitrilo)] tetraacetic acid, 1 mM phenylmethylsulfonyl fluoride, and 5 μg/ml leupeptin.
The cell lysates were clarified by centrifugation (cooled microfuge, 17,000 rpm, 15 min) and analyzed by SDS-PAGE (6.5% gels) and immunoblotting with anti-phosphotyrosine antibodies (either PY 20, ICN, and subsequently a peroxidase-coupled secondary antibody, or RC20-peroxidase conjugate, Affinity, Nottingham, United Kingdom). The blots were developed with a chemiluminescence detection system (Western Light, Tropix, or ECL, Amersham). In some experiments PDGF receptors were immunoprecipitated with PDGF-R3 or DIG-1 antibodies as described prior to the analysis by immunoblotting with anti-phosphotyrosine antibodies.
Membrane autophosphorylation assays: Membranes were prepared from confluent cultures of Swiss 3T3 cells as described. For measuring receptor autophosphorylation, 10 μg membrane protein per assay were incubated for 20 min on ice in the presence of 1.2 μg/ml EGF or 2 μg/ml PDGF, or both; 50 mM Hepes (pH 7.5); and 3 mm MnCl2 (final concentrations) in a volume of 45 μl. […] For quantification of radioactivity in electrophoresis gels, a Phospho-Imager (Molecular Dynamics, Fuji, or Bio-Rad) was used according to the instructions of the manufacturers. […]

[1] = system: porcine aortic smooth muscle cells (SMC); assay: Inhibition of cell proliferation and recovery, porcine SMC; assay type: cell-based; settings: for inhibition at 10 µM: Sus scrofa
Procedure: Smooth muscle cells (SMC) were obtained under aseptic conditions from porcine abdominal aortas, and human internal mammary arteries (IMA). Specimens from the operating room were transferred on ice to the tissue culture room. Each artery was cut open and the endothelial surface mechanically scraped. […] The tissue fragments were then placed in an incubator at 37° C. under 9% CO2 atmosphere until SMC outgrowth was detected (typically within 3-7 days). […] For experiments testing the effect of tyrphostins on growth inhibition and recovery (see below), SMC from passages 1-3 were replated in 15 mm wells pretreated with 3 μg/cm^2 fibronectin (Biological Industries, Kibbutz Beit Haemek, Israel) at 15,000 cells/well.
Inhibition of cell proliferation and recovery: Monolayer cell growth inhibition and recovery experiments were repeated 3 or 4 times. Each experiment was performed in triplicate. […] Cultures were treated with a tyrphostin (10 μM) dissolved in 0.1% DMSO on days 1 and 3. On day 6, cultures were washed and the cells allowed to recover. Typically cells were counted on days 3 and 5 for inhibition, and on days 7, 10 and 15 for recovery, other schedules were also employed as reported below.

Cc1cc2ncc(-c3cccs3)nc2cc1C [AG1990]
IC50 (SRC kinase): 20 µM
level of PDGF β-receptor protein present in the cells (PDGF β-receptor): without affecting the level
inhibition of PDGF-BB induced PDGF β-receptor tyrosine-phosphorylation (PDGF β-receptor; tyrphostin 10 μM, 60 min preincubation, PDGF-BB 100 ng/ml): completely inhibited
IC50 (EGFR): > 30 µM
IC50 (PDGFR): 1 µM
inhibition at 10 µM ([1]; 120 h, by day 5 (day given for AG1295 and AG1992), read-out: reduction in SMC count / inhibition of SMC growth over control): 50%
inhibition at 10 µM ([1]; Table 2, read-out: mean reduction in SMC count compared to control cells (maximal inhibition in SMC growth)): 50%
reversibility of the inhibitory effect / recovery of SMC growth after washout ([1]; porcine SMC, cultures washed, cells allowed to recover): completely reversible

Source: US5932580A, “PDGF receptor kinase inhibitory compounds their preparation and compositions” (priority 1997, dated 1999)
